Where two headings read alike, the source gives them in different places. *1 amine or outer side, *2 acyl side, *3 side chain or, on linkers, in order; H or OH if unused. Where a SMILES comes first, the peptide text is derived from it. [ ]: non-standard residue; d: D form. The star is where a group is joined. GluureaLys(ε-3-ClBenzyl) = O=C(O)CC[C@H](NC(=O)N[C@@H](CCCCN(Cc1cccc(Cl)c1)*)C(=O)O)C(=O)O; X3 = CC1(C)C(=O)N(c2ccc(C#N)c(C(F)(F)F)c2)C(=S)N1c1ccc(C(=O)*)c(F)c1; Dolaproine = CO[C@@H]([C@@H]1CCCN1)[C@@H](C)C(=O)O; Dil = CC[C@H](C)[C@H](NC)[C@@H](CC(=O)O)OC; X2 = O=C(CCCc1cn(CCCN[*:1])nn1)[*:2]; PABC = O=C(OCc1ccc(N[*:1])cc1)[*:2]; X1 = C[C@@H](N*)[C@@H](O)c1ccccc1; Cit = NC(=O)NCCC[C@H](N)C(=O)O; Suc = O=C(CCC(=O)[*:2])[*:1]; NMeV = CN[C@H](C(=O)O)C(C)C; Ahx = NCCCCCC(=O)O
Assays:
[1] = Body weight, general condition and mortality in the antitumor efficacy study; details: i.v. 132.3 nM/kg x3
Method: Animal body weight data are presented in Table S2 in the electronic supplementary materials.
To study the antitumor efficacy, conjugates were administered intravenously at a dose of 132.3 nM/kg to tumor-bearing mice three times at five-day intervals; administration was started 7−8 days after cell inoculation, and the tumor size was 70−90 mm^3. As a control substance, 0.9% sodium chloride solution was used. Experimental groups included five animals each. […] The mixture was dissolved in DMSO (5% of final solution) and diluted with hemodesum (30% low-molecular-weight polyvinylpyrrolidone (Mw = 8000 ± 200) saline infusion solution). The presence of tumors and their sizes, as well as the body weights of the mice, were recorded every five days during the observation of the animals. The antitumor effect was assessed by comparing the tumor volumes in the experimental and control groups as well as the amount of tumor growth inhibition (TGI, %). […]
(§1) 3.2.1. In vivo evaluation of antitumor efficacy […]
(§2) intravenously at a dose of 132.3 nM/kg to tumor-bearing mice three times at 5-day intervals, the administration was started 7-8 days after cell inoculation to animals, tumor size was 70-90 mm3.
(§3) A 0.9% sodium chloride solution was used as a control substance. The experimental groups […]
(§4) The presence of tumor masses and their size, as well as the body weight of the mice, were recorded every 5 days during observation. In accordance with humane principles, animals were euthanized by placing the mice in a CO2 inhalation chamber (ZOONLAB GmbH, Germany).
Conjugate Method of injection Dose Number of animals 22Rv1 PC-3 […]
3.4. In vivo Efficacy Evaluation
Days after tumor implantation / mass± error, g
Conjugate 7 day 12 day 17 day […]
injection) injection) injection)
Human prostate carcinoma 22Rv1
Human prostate adenocarcinoma PC-3
Table S3. Tumor growth dynamics of 22Rv1 and PC-3 in mice with intravenous triple injection of […]
ate Days after tumor implantation / V±m, mm3

[2] = test system: PC-3 prostate adenocarcinoma xenograft; details: PC-3 xenograft; for tumor volume V±m: i.v. triple injection, single dose 132.3 nM/kg; for Tumor growth inhibition: i.v. 132.3 nM/kg three times; for TGI, did not exceed: i.v. 132.3 nM/kg three times at five-day intervals, male Balb/c nude mice
Method: (§5) We carried out in vivo studies of the efficacy of the obtained bimodal conjugates. […] Also, conjugate I (Figure 5) was used as a reference compound. An isotonic (0.9%) sodium chloride solution was used as a negative control. Studies were carried out in xenograft models of 22Rv1 human prostate carcinoma and PC-3 prostate adenocarcinoma in immunodeficient Balb/c nude mice (male).
(§6) Two cell lines were used: human prostate carcinoma 22Rv1 and prostate adenocarcinoma PC-3 (ATCC collection). Cells were cultured in 75 cm^2 vials (Costar, Washington, DC, USA) in RPMI-1640 medium (PanEco, Russia) with the addition of 2 mM L-glutamine (PanEco, Russia) and 10% fetal calf serum (HyClone, Logan, UT, USA) under standard conditions of cultivation (in a humidified atmosphere at 37 °C and 5% CO2). Cells of 6–10 passages were used to inoculate the animals. Cell suspension was prepared with a concentration of 5 × 10^6 cells in 0.05 mL of the 22Rv1 medium and in 0.1 mL of the PC-3 medium. 22Rv1 cells were inoculated into animals in Matrigel (BD Matrigel Basement Membrane Matrix, BD Biosciences, San Jose, CA, USA). Manipulations with Matrigel were performed on a refrigerated plate using precooled materials, tubes and instrumentation. For animal administration, 50 μL of the cell suspension (5 × 10^6 cells) was transferred to a chilled tube containing 50 μL of Matrigel; after mixing, the cellular material (final volume of 100 μL) was injected subcutaneously into the groin area of the animal. To obtain subcutaneous xenograft PC-3, a 5 × 10^6 suspension of tumor cells was inoculated subcutaneously into the inguinal cavity of male mice in a volume of 0.1 mL.
(§7) To study the antitumor efficacy, conjugates were administered intravenously at a dose of 132.3 nM/kg to tumor-bearing mice three times at five-day intervals; administration was started 7−8 days after cell inoculation, and the tumor size was 70−90 mm^3. As a control substance, 0.9% sodium chloride solution was used. Experimental groups included five animals each. […] The mixture was dissolved in DMSO (5% of final solution) and diluted with hemodesum (30% low-molecular-weight polyvinylpyrrolidone (Mw = 8000 ± 200) saline infusion solution). The presence of tumors and their sizes, as well as the body weights of the mice, were recorded every five days during the observation of the animals. The antitumor effect was assessed by comparing the tumor volumes in the experimental and control groups as well as the amount of tumor growth inhibition (TGI, %).
(§8) Tumor volume was calculated using Formula (1):V = d1 × d2 × d3 × 0.52(1) where d1, d2 and d3 are the three mutually perpendicular dimensions of the tumor. […]
as §1, §2, §3, §4

[3] = test system: 22Rv1 human prostate carcinoma xenograft; details: 22Rv1 xenograft; for tumor volume V±m: i.v. triple injection, single dose 132.3 nM/kg; for Tumor growth inhibition: i.v. 132.3 nM/kg three times
Method: as §5, §6, §7, §8, §1, §2, §3, §4

[4] = 22Rv1 xenograft mice, 7 day after tumor implantation (1st injection)
[5] = 22Rv1 xenograft mice, 12 day after tumor implantation (2nd injection)
[6] = 22Rv1 xenograft mice, 17 day after tumor implantation (3rd injection)
[7] = 22Rv1 xenograft mice, 22 day after tumor implantation
[8] = 22Rv1 xenograft mice, 27 day after tumor implantation
[9] = 22Rv1 xenograft mice, 33 day after tumor implantation
[10] = 22Rv1 xenograft mice, 37 day after tumor implantation
[11] = PC-3 xenograft mice, 7 day after tumor implantation (1st injection)
[12] = PC-3 xenograft mice, 12 day after tumor implantation (2nd injection)
[13] = PC-3 xenograft mice, 17 day after tumor implantation (3rd injection)
[14] = PC-3 xenograft mice, 22 day after tumor implantation
[15] = PC-3 xenograft mice, 27 day after tumor implantation
[16] = PC-3 xenograft mice, 33 day after tumor implantation
[17] = PC-3 xenograft mice, 37 day after tumor implantation
[18] = 7 day after tumor implantation (1st injection)
[19] = 12 day after tumor implantation (2nd injection)
[20] = 17 day after tumor implantation (3rd injection)
[21] = 22 day after tumor implantation
[22] = 27 day after tumor implantation
[23] = 33 day after tumor implantation
[24] = 37 day after tumor implantation
[25] = days after the start of treatment: 1
[26] = days after the start of treatment: 5
[27] = days after the start of treatment: 10
[28] = days after the start of treatment: 16
[29] = days after the start of treatment: 20

Row | Structure (SMILES) | body weight, mass ± error [1, 4] | body weight, mass ± error [1, 5] | body weight, mass ± error [1, 6] | body weight, mass ± error [1, 7] | body weight, mass ± error [1, 8] | body weight, mass ± error [1, 9] | body weight, mass ± error [1, 10] | body weight, mass ± error [1, 11] | body weight, mass ± error [1, 12] | body weight, mass ± error [1, 13] | body weight, mass ± error [1, 14] | body weight, mass ± error [1, 15] | body weight, mass ± error [1, 16] | body weight, mass ± error [1, 17] | tumor volume V±m [2, 18] | tumor volume V±m [2, 19] | tumor volume V±m [2, 22] | tumor volume V±m [2, 23] | tumor volume V±m [2, 24] | Tumor growth inhibition [2, 25] | also measured
1 | CC[C@H](C)[C@@H]([C@@H](CC(=O)N1CCC[C@H]1[C@H](OC)[C@@H](C)C(=O)N[C@H](C)[C@@H](O)c1ccccc1)OC)N(C)C(=O)[C@@H](NC(=O)[C@@H](NC)C(C)C)C(C)C [MMAE, Monomethyl Auristatin E, reference compound] (H-[NMeV]V[Dil][Dolaproine]-X1) | 24.0 ± 1.3 g | 23.7 ± 1.3 g | 23.4 ± 1.3 g | 23.5 ± 1.3 g | 23.8 ± 1.3 g | 24.0 ± 1.3 g | 24.2 ± 1.4 g | 22.4 ± 1.2 g | 22.7 ± 1.5 g | 22.4 ± 1.4 g | 23.0 ± 1.4 g | 23.1 ± 1.3 g | 23.2 ± 1.2 g | 23.3 ± 1.2 g | 85.9±8.7 mm3 | 117.9 mm3 | 592.6 mm3 | 1014.3 mm3 | 1679.9 mm3 | 29.8% | tumor volume V±m [2, 20]: 211.3 mm3; tumor volume V±m [2, 21]: 330.9 mm3; Tumor growth inhibition [2, 26]: 32.1%; Tumor growth inhibition [2, 27]: 29.5%; Tumor growth inhibition [2, 28]: 25.4%; Tumor growth inhibition [2, 29]: 38.4%; TGI, did not exceed [2]: ≤ 38.4%; tumor volume V±m [3, 18]: 73.7±14.3 mm3; tumor volume V±m [3, 19]: 93.6±5.7 mm3; tumor volume V±m [3, 20]: 125.3 mm3; tumor volume V±m [3, 21]: 211.7 mm3; tumor volume V±m [3, 22]: 388.2 mm3; tumor volume V±m [3, 23]: 749.3 mm3; tumor volume V±m [3, 24]: 1402.3 mm3; Tumor growth inhibition [3, 25]: 41.5%; Tumor growth inhibition [3, 26]: 60.1%; Tumor growth inhibition [3, 27]: 64.7%; Tumor growth inhibition [3, 28]: 63.0%; Tumor growth inhibition [3, 29]: 51.0%
2 | CC[C@H](C)[C@@H]([C@@H](CC(=O)N1CCC[C@H]1[C@H](OC)[C@@H](C)C(=O)N[C@H](C)[C@@H](O)c1ccccc1)OC)N(C)C(=O)[C@@H](NC(=O)[C@H](C(C)C)N(C)C(=O)OCc1ccc(NC(=O)[C@H](CCCNC(N)=O)NC(=O)[C@@H](NC(=O)CCCc2cn(CCCNC(=O)[C@H](CCCCNC(=O)c3ccc(N4C(=S)N(c5ccc(C#N)c(C(F)(F)F)c5)C(=O)C4(C)C)cc3F)NC(=O)[C@H](Cc3ccc(O)cc3)NC(=O)[C@H](Cc3ccccc3)NC(=O)CCC(=O)NCCCCCC(=O)N(CCCC[C@H](NC(=O)N[C@@H](CCC(=O)O)C(=O)O)C(=O)O)Cc3cccc(Cl)c3)nn2)C(C)C)cc1)C(C)C [compound 15] ({GluureaLys(ε-3-ClBenzyl)-Ahx-Suc}-FYK(X3)[X2]V[Cit][PABC][NMeV]V[Dil][Dolaproine]-X1) | 25.2 ± 1.2 g | 25.0 ± 1.2 g | 25.0 ± 1.2 g | 25.2 ± 1.3 g | 25.1 ± 1.3 g | 25.2 ± 1.3 g | 25.5 ± 1.5 g | 23.9 ± 2.1 g | 23.8 ± 2.1 g | 24.0 ± 2.2 g | 24.4 ± 2.3 g | 24.8 ± 2.1 g | 24.9 ± 1.8 g | 25.1 ± 1.9 g | 83.1±6.8 mm3 | 117.6 mm3 | 534.3 mm3 | 819.8 mm3 | 1318.4 mm3 | 20.5% | Tumor growth inhibition [2, 26]: 18.5%; Tumor growth inhibition [2, 27]: 36.5%; Tumor growth inhibition [2, 28]: 39.7%; Tumor growth inhibition [2, 29]: 51.7%; TGI, did not exceed [2]: ≤ 51.7%; tumor volume V±m [3, 18]: 73.3±8.8 mm3; tumor volume V±m [3, 19]: 64.7±15.3 mm3; tumor volume V±m [3, 20]: 76.1±46.5 mm3; tumor volume V±m [3, 21]: 171.6 mm3; tumor volume V±m [3, 23]: 650.1 mm3; tumor volume V±m [3, 24]: 988.7 mm3; Tumor growth inhibition [3, 25]: 64.5%; Tumor growth inhibition [3, 26]: 67.6%; Tumor growth inhibition [3, 27]: 71.3%; Tumor growth inhibition [3, 28]: 67.9%; Tumor growth inhibition [3, 29]: 65.4%
